Laboratory results as given in EP2348038A1, “Method for determining the activity of transglutaminase factor XIIIa” (PHILIPPS-UNIVERSITÄT MARBURG, priority 2010, dated 2011).
Peptide text beside a SMILES is read from it. * marks the point of attachment. pNA = O=[N+]([O-])c1ccc(N*)cc1; Cbz = O=C(OCc1ccccc1)*

Tests used:
Format in all cases: biochemical
FXllla = molecular target: T1, FXllla (Homo sapiens, UniProt P00488); test: Initial experiments: cleavage by FXIIIa of Glu(pNA) peptides derived from the Berichrom substrate sequence
T1 sequence (P00488 39-732 limits assumed): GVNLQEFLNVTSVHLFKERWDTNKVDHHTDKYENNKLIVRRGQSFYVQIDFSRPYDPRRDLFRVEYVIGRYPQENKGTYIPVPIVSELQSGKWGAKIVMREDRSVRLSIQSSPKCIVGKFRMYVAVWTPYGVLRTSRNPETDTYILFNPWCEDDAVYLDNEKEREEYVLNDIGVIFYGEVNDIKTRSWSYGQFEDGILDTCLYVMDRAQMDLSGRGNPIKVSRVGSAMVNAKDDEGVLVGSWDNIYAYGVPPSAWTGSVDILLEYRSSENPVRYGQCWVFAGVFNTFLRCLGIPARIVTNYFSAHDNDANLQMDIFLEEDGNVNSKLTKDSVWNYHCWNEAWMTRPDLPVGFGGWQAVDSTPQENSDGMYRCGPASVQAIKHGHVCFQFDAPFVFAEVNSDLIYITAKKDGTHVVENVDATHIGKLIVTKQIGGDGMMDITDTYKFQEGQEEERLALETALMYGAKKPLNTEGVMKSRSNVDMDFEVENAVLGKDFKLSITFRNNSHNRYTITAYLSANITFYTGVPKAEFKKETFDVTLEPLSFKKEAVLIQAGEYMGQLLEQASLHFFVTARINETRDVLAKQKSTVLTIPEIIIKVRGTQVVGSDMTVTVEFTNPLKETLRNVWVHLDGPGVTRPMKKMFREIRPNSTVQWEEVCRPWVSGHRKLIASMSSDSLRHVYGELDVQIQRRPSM

FXIIIa = test: Initial cleavage tests of Glu(pNA)/Glu(AMC) derivatives with FXIIIa (background section); settings: release of pNA or AMC; no conditions given
From the text: Nach derzeitigem Wissen existieren neben FXIII bzw. FXllla im Körper derzeit noch 8 weitere Transglutaminasen, dazu zählen TG1-TG7 sowie das Protein epb42, dass allerdings katalytisch unwirksam ist (Wodzinska, Mini Rev. in Med. Chem. 5 (2005) 279-292). Als erste Transglutaminase wurde das inzwischen als TG2 bezeichnete Enzym entdeckt. Dessen Aktivität lässt sich sehr einfach durch UV/VIS-spektroskopische oder fluorimetrische Messungen unter Verwendung simpler Aminosäurederiate nachweisen, beispielsweise durch Abspaltung von p-Nitroanlin aus H-Glu(pNA)-OH oder durch Abspaltung von Aminomethylcoumarin aus H-Glu(AMC)-OH (Smith et al., Anal. Biochem. 100 (1979) 136-139). […] Bisher wurden auch noch keine Peptidderivate beschrieben, die einen Glu(pNA) oder Glu(AMC)-Rest besitzen und gleichzeitig mit ausreichender Effektivität von FXllla unter Freisetzung von pNA oder AMC umgesetzt werden.

Faktor XIIIa [1] = molecular target: T2, Faktor XIIIa (Homo sapiens, UniProt P00488); test: Cleavage of pNA substrates by activated factor XIIIa, absorbance at 405 nm (Michaelis-Menten kinetics and pre-test); settings: for Substratspaltung (Vortest): pre-test at constant substrate concentration, 405 nm; for Substratspaltung (Vortest) / Vmax: 37 °C; for Vmax: change of absorbance at 405 nm per s, enzyme ca. 1,25 Einheiten/ml
T2 construct: Aktivierung des Zymogens FXIII zu Faktor XIIIa; purchased Aventis Behring Fibrogammin HS
T2 sequence (P00488 39-732 limits assumed): T1 sequence (P00488 39-732 limits assumed)
Protocol: 250 Einheiten lyophilisiertes Fibrogammin HS (Aventis Behring) wurden in 4 ml Wasser gelöst, als 100 µl Portionen aliquotiert und bei -80 °C gelagert. 100 µl dieser Lösung enthalten 6,25 Einheiten FXIII.
100 µl des aliqotierten Fibrogammins (entspricht 6,25 Einheiten) wurden mit 500 µl TBS-Puffer (50 mM Tris-HCl, pH 7,5 in 0,9% (w/v) NaCl), 360 µl einer 0.9 % NaCl-Lösung, 10 µl einer 1 M CaCl2-Lösung und 20 µl einer Thrombinlösung (Rinderthrombin: 14,2 U in 20 µl) versetzt. Der Ansatz wurde 20 min bei 37 °C inkubiert, danach wurden 10 µl einer Lösung mit rekombinantem Hirudin zugesetzt (r-Hirudin: HBW 023 mit 13442 IU mg^-1, Stammlösung des r-Hirudin = 1 mg/ml). Dieser Aktivierungsansatz besitzt ein Gesamtvolumen von 1 ml, der aktivierte Faktor Xllla wurde bei 37 °C aufbewahrt und für die folgenden kinetischen Messungen verwendet.
Die Messungen wurden bei 405 nm und 37 °C mit einem Microplate Reader der Firma Labsystems (iEMS Reader MF) mit folgendem Messansatz durchgeführt: • 150 µl TBS-Puffer (siehe oben, der Puffer kann gegebenenfalls auch eine Aminkomponente enthalten, beispielsweise H-Gly-Ethylester oder H-Gly-Gly-Ethylester oder ein anderes Amin, falls vorhanden ist die finale Konzentration des Amins im Messansatz 2,5 mM oder höher) • 50 µl Substratlösung • 50 µl Enzymlösung (im Messansatz ca. 1,25 Einheiten/ml)
Sämtliche Lösungen wurden vor Benutzung bei 37 °C aufbewahrt, vor Zugabe der FXllla-Lösung wurde die Mikroreadermessplatte nochmals 5 min bei 37 °C im Messgerät temperiert. Nach Zugabe der FXllla-Lösung wurde die Substratspaltung gestartet und die Änderung der Absorption bei 405 nm gemessen. Für einen Vortest wurde eine konstante Substratkonzentration verwendet. […] Wir haben vermutet, dass vor allem die Aminosäuren N- und C-terminal des Glu(pNA)-Restes wichtig für die Substraterkennung sind, deshalb wurde das N-terminale Glycin und das an dritter Position befindliche Serin innerhalb der Berichromsequenz durch andere Aminosäurereste ersetzt. Durch den Vortest wurde festgestellt, dass einige dieser Substrate deutlich schneller als die Derivate S1 und S2 gespalten werden. Für ausgewählte Substrate wurden die Substratkonzentrationen im Messansatz variiert und die bestimmten Umsatzgeschwindigkeiten als Funktion der Substratkonzentration entsprechend der Michaelis-Menten-Gleichung v=Vmax·[S]/(Km+[S]) aufgetragen und somit die kinetischen Konstanten Km und Vmax bestimmt, wobei Vmax in der Einheit Absorptionsänderung bei 405 nm/s erhalten wurde. Dies ist in Fig. 1 und Fig. 2 gezeigt.

Faktor XIIIa [2] = molecular target: T2, Faktor XIIIa; test: Cleavage of AMC substrates by activated factor XIIIa, fluorescence plate reader (Michaelis-Menten kinetics); settings: λEX = 380 nm, λEm = 460 nm, room temperature, enzyme ca. 0,893 Einheiten/ml
Protocol: Die Aliquotierung des Zymogens Faktor XIII und Aktivierung des Zymogens FXIII zu Faktor XIIIa erfolgten analog der in Beispiel 3 beschriebenen Prozedur.
Sämtliche Lösungen wurden bei Raumtemperatur aufbewahrt. Die Bestimmung der Spaltung der AMC-Substrate durch FXllla wurde mit einem Fluoreszenz-Plattenreader Safire^2 der Firma Tecan (λEX = 380 nm, λEm = 460 nm) bei Raumtemperatur durchgeführt. • 100 µl TBS-Puffer (siehe oben, der Puffer kann gegebenenfalls auch eine Aminkomponente enthalten, beispielsweise H-Gly-Ethylester oder H-Gly-Gly-Ethylester oder ein anderes Amin) • 50 µl Substratlösung • 25 µl Enzymlösung (im Messansatz ca. 0,893 Einheiten/ml)
Die Michaelis-Menten-Auftragung für die AMC-enthaltenden Substrate ist in Fig. 3 gezeigt.

CC[C@H](C)[C@H](NC(=O)[C@@H](NC(=O)[C@H](CCCCN)NC(=O)[C@H](CO)NC(=O)[C@H](CCC(=O)Nc1ccc([N+](=O)[O-])cc1)NC(C)=O)C(C)C)C(=O)NCC(N)=O [Ac-Glu(pNA)-Ser-Lys-Val-Ile-Gly-NH2] (Ac-E(pNA)SKVIG-NH2)
Spaltung durch FXllla (FXllla): fast gar nicht oder nur sehr langsam gepalten

Cc1cc(=O)oc2cc(NC(=O)CC[C@H](N)C(=O)O)ccc12 [H-Glu(AMC)-OH]
Spaltung durch FXIIIa (FXIIIa): nicht gespalten

N[C@@H](CCC(=O)Nc1ccc([N+](=O)[O-])cc1)C(=O)O [H-Glu(pNA)-OH]
Spaltung durch FXIIIa (FXIIIa): nicht gespalten

CC[C@H](C)[C@H](NC(=O)[C@@H](NC(=O)[C@H](CCCCN)NC(=O)[C@H](CO)NC(=O)[C@@H](N)CCC(=O)Nc1ccc([N+](=O)[O-])cc1)C(C)C)C(=O)NCC(N)=O [H-Glu(pNA)-Ser-Lys-Val-Ile-Gly-NH2] (H-E(pNA)SKVIG-NH2)
Spaltung durch FXllla (FXllla): fast gar nicht oder nur sehr langsam gepalten

CC[C@H](C)[C@H](NC(=O)[C@@H](NC(=O)[C@H](CCCCN)NC(=O)[C@H](CO)NC(=O)[C@H](CCC(=O)Nc1ccc([N+](=O)[O-])cc1)NC(=O)CNC(=O)[C@@H]1CCCN1C(=O)CN)C(C)C)C(=O)NCC(N)=O [H-Gly-Pro-Gly-Glu(pNA)-Ser-Lys-Val-Ile-Gly-NH2] (H-GPGE(pNA)SKVIG-NH2)
Spaltung durch FXllla (FXllla): fast gar nicht oder nur sehr langsam gepalten

CC[C@H](C)[C@H](NC(=O)[C@@H](NC(=O)[C@H](CCCCN)NC(=O)[C@H](CO)NC(=O)[C@H](CCC(=O)Nc1ccc([N+](=O)[O-])cc1)NC(=O)CNC(=O)[C@@H]1CCCN1C(=O)CNC(=O)[C@@H](N)CC(C)C)C(C)C)C(=O)NCC(N)=O [H-Leu-Gly-Pro-Gly-Glu(pNA)-Ser-Lys-Val-Ile-Gly-NH2] (H-LGPGE(pNA)SKVIG-NH2)
Spaltung durch FXllla (FXllla): nur sehr langsam von FXllla gepalten

CC[C@H](C)[C@H](NC(=O)[C@@H](NC(=O)[C@H](CCCCN)NC(=O)[C@H](CO)NC(=O)[C@H](CCC(=O)Nc1ccc([N+](=O)[O-])cc1)NC(=O)CNC(=O)[C@@H]1CCCN1)C(C)C)C(=O)NCC(N)=O [H-Pro-Gly-Glu(pNA)-Ser-Lys-Val-Ile-Gly-NH2] (H-PGE(pNA)SKVIG-NH2)
Spaltung durch FXllla (FXllla): fast gar nicht oder nur sehr langsam gepalten

CC(C)C[C@H](NC(=O)[C@@H]1CCCN1C(=O)[C@H](CO)NC(=O)[C@@H](NC(=O)[C@H](CC(N)=O)NC(=O)[C@H](CCC(=O)O)NC(=O)[C@H](CCC(=O)Nc1ccc([N+](=O)[O-])cc1)NC(=O)[C@@H](N)CC(N)=O)C(C)C)C(N)=O [Substrat S1, H-Asn-Glu(pNA)-Glu-Asn-Val-Ser-Pro-Leu-NH2] (H-NE(pNA)ENVSPL-NH2)
Substratspaltung (Vortest) (Faktor XIIIa [1]): praktisch kaum gespalten

CC[C@H](C)[C@H](NC(=O)[C@@H](NC(=O)[C@H](CCCCN)NC(=O)[C@H](CO)NC(=O)[C@H](CCC(=O)Nc1ccc([N+](=O)[O-])cc1)NC(=O)CN)C(C)C)C(=O)NCC(N)=O [Substrat S2, H-Gly-Glu(pNA)-Ser-Lys-Val-Ile-Gly-NH2] (H-GE(pNA)SKVIG-NH2)
Substratspaltung (Vortest) (Faktor XIIIa [1]): nur langsam umgesetzt

CC[C@H](C)[C@H](NC(=O)[C@@H](NC(=O)[C@H](CCCCN)NC(=O)[C@@H](NC(=O)[C@H](CCC(=O)Nc1ccc([N+](=O)[O-])cc1)NC(=O)[C@@H](N)Cc1ccc(O)cc1)C(C)C)C(C)C)C(=O)NCC(N)=O [Substrat S10, H-Tyr-Glu(pNA)-Val-Lys-Val-Ile-Gly-NH2] (H-YE(pNA)VKVIG-NH2)
Vmax (Faktor XIIIa [1]; pNA substrates): 0,95 × 10^-4 dOD/s

CC[C@H](C)[C@H](NC(=O)[C@@H](NC(=O)[C@H](CCCCN)NC(=O)[C@@H](NC(=O)[C@H](CCC(=O)Nc1ccc([N+](=O)[O-])cc1)NC(=O)[C@@H](N)Cc1ccc(O)cc1)C(C)C)C(C)C)C(N)=O [Substrat S12, H-Tyr-Glu(pNA)-Val-Lys-Val-Ile-NH2] (H-YE(pNA)VKVI-NH2)
Vmax (Faktor XIIIa [1]; pNA substrates): 1.33 × 10^-4 dOD/s

CC[C@H](C)[C@H](NC(=O)[C@@H](NC(=O)[C@H](CCCNC(=N)N)NC(=O)[C@@H](NC(=O)[C@H](CCC(=O)Nc1ccc([N+](=O)[O-])cc1)NC(=O)[C@@H](N)Cc1ccc(O)cc1)C(C)C)C(C)C)C(=O)NCC(N)=O [Substrat S16, H-Tyr-Glu(pNA)-Val-Arg-Val-Ile-Gly-NH2] (H-YE(pNA)VRVIG-NH2)
Eignung als Substrat (Faktor XIIIa [1]; pNA substrates, see Fig. 2): geeignete Substrate
Vmax (Faktor XIIIa [1]; pNA substrates): 0,8 × 10^-4 dOD/s

CC[C@H](C)[C@H](NC(=O)[C@@H](NC(=O)[C@H](CCCCN)NC(=O)[C@@H](NC(=O)[C@H](CCC(=O)Nc1ccc([N+](=O)[O-])cc1)NC(=O)[C@@H](N)CCCCN)C(C)C)C(C)C)C(=O)NCC(N)=O [Substrat S18, H-Lys-Glu(pNA)-Val-Lys-Val-Ile-Gly-NH2] (H-KE(pNA)VKVIG-NH2)
Vmax (Faktor XIIIa [2]): 9,61 dRFU/s

CC[C@H](C)[C@H](NC(=O)[C@@H](NC(=O)[C@H](CCCCN)NC(=O)[C@H](CCCCNC(=O)OCc1ccccc1)NC(=O)[C@H](CCC(=O)Nc1ccc([N+](=O)[O-])cc1)NC(=O)[C@@H](N)Cc1c[nH]cn1)C(C)C)C(=O)NCC(N)=O [Substrat S19, H-His-Glu(pNA)-Lys(Z)-Lys-Val-Ile-Gly-NH2] (H-HE(pNA)K(Cbz)KVIG-NH2)
Vmax (Faktor XIIIa [2]): 11,99 dRFU/s
